In patent publication US20250195513A1, “DEGRADATION OF IRAK4 BY CONJUGATION OF IRAK4 INHIBITORS WITH E3 LIGASE LIGAND AND METHODS OF USE” (BeiGene, Ltd., priority 2022, published 2025):

Experiments:
[1] = molecular target: T1, IRAK4 (Homo sapiens, UniProt Q9NWZ3); test: IRAK4 Degradation Assay (Karpas299, HTRF/TR-FRET); format: cell-based; conditions: Karpas-299 cells, 24 h treatment; for Dmax: maximum percentage of degradation, read-out: IRAK4 in Karpas-299 (24 h) Dmax (%); for DC50: read-out: IRAK4 in Karpas-299 (24 h) DC50
T1 construct: endogenous in cells; host or cells: Karpas299
T1 sequence (Q9NWZ3 1-460): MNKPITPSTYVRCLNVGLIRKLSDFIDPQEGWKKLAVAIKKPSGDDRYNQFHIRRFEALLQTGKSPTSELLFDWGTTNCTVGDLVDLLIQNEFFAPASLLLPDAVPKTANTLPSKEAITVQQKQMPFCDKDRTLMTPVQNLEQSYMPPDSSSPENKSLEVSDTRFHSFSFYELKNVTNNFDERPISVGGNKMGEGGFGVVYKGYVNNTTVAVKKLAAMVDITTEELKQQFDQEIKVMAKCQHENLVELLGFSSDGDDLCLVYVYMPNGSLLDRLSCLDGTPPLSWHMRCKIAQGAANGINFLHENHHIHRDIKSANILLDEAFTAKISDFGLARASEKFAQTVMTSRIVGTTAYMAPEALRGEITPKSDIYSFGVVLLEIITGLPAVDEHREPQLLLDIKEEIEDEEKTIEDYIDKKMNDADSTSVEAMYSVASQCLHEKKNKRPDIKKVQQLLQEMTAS
Method in brief: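 Karpas299 cells at 0.2 million per well were exposed to serially diluted compounds for 24 h or 5 h, then lysed. IRAK4 remaining in lysates was quantified by HTRF (665/620 nm) after overnight antibody incubation at room temperature. Percent degradation was fitted to a four-parameter curve to give IC50 (DC50).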

[2] = molecular target: T1, IRAK4; test: IRAK4 Degradation Assay with Human Serum (Karpas299, HTRF/TR-FRET); format: cell-based; conditions: Karpas-299 in human serum, 24 hrs treatment; for DC50: read-out: IRAK4 degradtion with human serum assay DC50; for Dmax: read-out: IRAK4 degradtion with human serum assay Dmax (%)
Experimental: IRAK4 degradation was measured using a TR-FRET-based method (Degorce, François, et al. Current chemical genomics. 2009, 3: 22). Karpas299 resuspended in Human serum AB (GEMINI, 100-512) were seeded into 96-well plates at the density of 0.2 million cells per well and then treated with a series dilution of compounds. After 24 hrs treatment, cells were pelleted via centrifugation and washed with PBS, add 40 μL lysis buffer (Cisbio) to each well after removal of the supernatant. Plates were then incubated at room temperature with shaking for 30 minutes. A total of 16 μL of cell lysates from each well of a 96-well plate was transferred to a 384-well white assay plate. IRAK4 level was quantitated using the HTRF kit as described by the manufacturer manual (Cisbio). FRET signals were measured using a PHERAstar FSX reader (BMG Labtech).
After treatment, add HTRF lysis buffer to each well; seal the plate and incubate 1 hour at room temperature on a plate shaker; Once the cells are lysed, 16 μL of cell lysate are transferred to a PE 384-well HTRF detection plate; 4 μL of pre-mixed HTRF antibodies are added to each well; Cover the plate with a plate sealer, spin 1000 rpm for 1 min, Incubate overnight at room temperature; Read on BMG PheraStar with HTRF protocol (337 nm-665 nm-620 nm).
The inhibition (degradation) percentage of the compound was calculated by the following equation: […]
The IC50 (DC50) value of a compound can be obtained by fitting the following equation
Wherein, X and Y are known values, and IC50, Hillslope, Top and Bottom are the parameters obtained by fitting with software. Y is the inhibition percentage (calculated from the equation), X is the concentration of the compound; IC50 is the concentration of the compound when the […] is reached. The smaller the IC50 value is, the stronger the inhibitory ability of the compound is. Vice versa, the higher the IC50 value is, the weaker the ability the inhibitory ability of the compound is; Hillslope represents the slope of the fitted curve, generally around 1 *; Bottom represents the minimum value of the curve obtained by data fitting, which is generally 0%±20%; Top represents the maximum value of the curve obtained by data fitting, which is generally 100%±20%. The experimental data were fitted by calculating and analyzing with Dotmatics data analysis software.

Dmax [1] [%]	DC50 [1] [nM]	DC50 [2] [nM]	Dmax [2] [%]	Compound
94	0.4	6.6	95	Cn1c(=O)n(C2CCC(=O)NC2=O)c2cccc(CCCN3CCN([C@H]4CC[C@H](n5cc6cc(NC(=O)c7ccc8cc(C#N)cnn78)c(C(C)(C)O)cc6n5)CC4)CC3)c21 (stereo partly drawn) [Example 348, 3-cyano-N-(2-((1r,4r)-4-(4-(3-(1-(2,6-dioxopiperidin-3-yl)-3-methyl-2-oxo-2,3-dihydro-1H-benzo[d]imidazol-4-yl)propyl)piperazin-1-yl)cyclohexyl)-6-(2-hydroxypropan-2-yl)-2H-indazol-5-yl)pyrrolo[1,2-b]pyridazine-7-carboxamide]
94	3.6	40	95	COc1cc(N2CC[C@@H](C(=O)N3CCN([C@H]4CC[C@H](n5cc6cc(NC(=O)c7ccc8cc(C#N)cnn78)c(C(C)(C)O)cc6n5)CC4)CC3)C2)cc(F)c1N1CCC(=O)NC1=O [Example 212, 3-cyano-N-(2-((1R,4r)-4-(4-((R)-1-(4-(2,4-dioxotetrahydropyrimidin-1(2H)-yl)-3-fluoro-5-methoxyphenyl)pyrrolidine-3-carbonyl)piperazin-1-yl)cyclohexyl)-6-(2-hydroxypropan-2-yl)-2H-indazol-5-yl)pyrrolo[1,2-b]pyridazine-7-carboxamide]
98	0.3	24	96	COC[C@H]1CN([C@H]2CC[C@H](n3cc4cc(NC(=O)c5ccc6cc(C#N)cnn56)c(C(C)(C)O)cc4n3)CC2)CCN1C(=O)[C@@H]1CCN(c2cc(F)c([C@H]3CCC(=O)NC3=O)c(F)c2)C1 [Example 313, 3-cyano-N-(2-((1R,4r)-4-((R)-4-((R)-1-(4-((R)-2,6-dioxopiperidin-3-yl)-3,5-difluorophenyl)pyrrolidine-3-carbonyl)-3-(methoxymethyl)piperazin-1-yl)cyclohexyl)-6-(2-hydroxypropan-2-yl)-2H-indazol-5-yl)pyrrolo[1,2-b]pyridazine-7-carboxamide]
95	1	23	99	COC[C@H]1CN(C2CCN(c3cc(F)c([C@H]4CCC(=O)NC4=O)c(F)c3)CC2)CCN1[C@H]1CC[C@H](n2cc3cc(NC(=O)c4ccc5cc(C#N)cnn45)c(C(C)(C)O)cc3n2)CC1 [Example 324, 3-cyano-N-(2-((1R,4r)-4-((R)-4-(1-(4-((R)-2,6-dioxopiperidin-3-yl)-3,5-difluorophenyl)piperidin-4-yl)-2-(methoxymethyl)piperazin-1-yl)cyclohexyl)-6-(2-hydroxypropan-2-yl)-2H-indazol-5-yl)pyrrolo[1,2-b]pyridazine-7-carboxamide]
97	2.4	57	97	CC(C)(O)c1cc2nn([C@H]3CC[C@H](N4CCN(C(=O)[C@@H]5CCN(c6cc(F)c(N7CCC(=O)NC7=O)c(F)c6)C5)CC4)CC3)cc2cc1NC(=O)c1ccc2cc(C#N)cnn12 [Example 106, 3-cyano-N-(2-((1R,4r)-4-(4-((R)-1-(4-(2,4-dioxotetrahydropyrimidin-1(2H)-yl)-3,5-difluorophenyl)pyrrolidine-3-carbonyl)piperazin-1-yl)cyclohexyl)-6-(2-hydroxypropan-2-yl)-2H-indazol-5-yl)pyrrolo[1,2-b]pyridazine-7-carboxamide]
96	2.5	17	96	CC(C)(O)c1cc2nn([C@H]3CC[C@H](CN4CCN(CCNc5cccc6c5C(=O)N(C5CCC(=O)NC5=O)C6=O)CC4)CC3)cc2cc1NC(=O)c1ccc2cc(C#N)cnn12 (stereo partly drawn) [Example 438, 3-cyano-N-(2-((1r,4r)-4-((4-(2-((2-(2,6-dioxopiperidin-3-yl)-1,3-dioxoisoindolin-4-yl)amino)ethyl)piperazin-1-yl)methyl)cyclohexyl)-6-(2-hydroxypropan-2-yl)-2H-indazol-5-yl)pyrrolo[1,2-b]pyridazine-7-carboxamide]
